Experimental data published in patent publication US12649722B2, “Herbicidal cinnoline derivatives” (SYNGENTA CROP PROTECTION AG, priority 2020, dated 2026).

How the values were obtained:
Format in all cases: in vivo
Solarium nigrum (SOLNI) [1] = experiment: Pre-emergence Test, SOLNI; details: 1000 g/ha, evaluated after 13 days
[2] = tested on: Amaranthus retoflexus (AMARE); experiment: Pre-emergence Test, AMARE; details: 1000 g/ha, evaluated after 13 days
[3] = tested on: Ipornoea hederacea (IPOHE); experiment: Pre-emergence Test, IPOHE; details: 1000 g/ha, evaluated after 13 days
[4] = tested on: Echinochloa crus-galli (ECHCG); experiment: Pre-emergence Test, ECHCG; details: 1000 g/ha, evaluated after 13 days
Lolium perenne (LOLPE) [5] = experiment: Pre-emergence Test, LOLPE; details: 1000 g/ha, evaluated after 13 days
Setaria faberi (SETFA) [6] = experiment: Pre-emergence Test, SETFA; details: 1000 g/ha, evaluated after 13 days
Solarium nigrum (SOLNI) [7] = experiment: Post-emergence Test, SOLNI; details: sprayed after 8 days cultivation, 1000 g/ha, evaluated after 13 days
Description: (§1) Seeds of a variety of test species are sown in standard soil in pots (Amaranthus retoflexus (AMARE), Solarium nigrum (SOLNI), Setaria faberi (SETFA), Lolium perenne (LOLPE), Echinochloa crus-galli (ECHCG), Ipornoea hederacea (IPOHE)). After 8 days cultivation under controlled conditions in a glasshouse (at 24° C./16° C., day/night; 14 hours light; 65% humidity), the plants are sprayed with an aqueous spray solution derived from the formulation of the technical active ingredient in acetone/water (50:50) solution containing 0.5% Tween 20 (polyoxyethylene sorbitan monolaurate, CAS RN 9005-64-5). Compounds are applied at 1000 g/ha unless otherwise stated. The test plants are then grown in a glasshouse under controlled conditions in a glasshouse (at 24° C./16° C., day/night; 14 hours light; 65% humidity) and watered twice daily. After 13 days the test is evaluated for the percentage damage caused to the plant. The biological activities are shown in the following table on a five-point scale (5=81-100%; 4=61-80%; 3=41-60%; 2=21-40%; 1=10-20%; 0=0%; −=not tested).

[8] = tested on: Amaranthus retoflexus (AMARE); experiment: Post-emergence Test, AMARE; details: sprayed after 8 days cultivation, 1000 g/ha, evaluated after 13 days
How it was run: (§2)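 Pots sown with AMARE, SOLNI, SETFA, LOLPE, ECHCG, IPOHE, kept in glasshouse (24/16 °C, 14 h light, 65% humidity), sprayed at 1000 g/ha unless stated, in acetone/water 50:50 with 0.5% Tween 20. Damage scored after 13 days on a 0–5 scale (5=81–100%, 0=0%).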

[9] = tested on: Ipornoea hederacea (IPOHE); experiment: Post-emergence Test, IPOHE; details: sprayed after 8 days cultivation, 1000 g/ha, evaluated after 13 days
How it was run: as §2

[10] = tested on: Echinochloa crus-galli (ECHCG); experiment: Post-emergence Test, ECHCG; details: sprayed after 8 days cultivation, 1000 g/ha, evaluated after 13 days
How it was run: as §2

Lolium perenne (LOLPE) [11] = experiment: Post-emergence Test, LOLPE; details: sprayed after 8 days cultivation, 1000 g/ha, evaluated after 13 days
Description: as §1

Setaria faberi (SETFA) [12] = experiment: Post-emergence Test, SETFA; details: sprayed after 8 days cultivation, 1000 g/ha, evaluated after 13 days
How it was run: as §2

ZEAMX [13] = experiment: Pre-emergence Test, ZEAMX; details: 1000 g/ha, evaluated after 13 days
ABUTH [14] = experiment: Pre-emergence Test, ABUTH; details: 1000 g/ha, evaluated after 13 days
ZEAMX [15] = experiment: Post-emergence Test, ZEAMX; details: sprayed after 8 days cultivation, 1000 g/ha, evaluated after 13 days
ABUTH [16] = experiment: Post-emergence Test, ABUTH; details: sprayed after 8 days cultivation, 1000 g/ha, evaluated after 13 days

| SMILES | percentage damage caused to the plant, SOLNI (Solarium nigrum (SOLNI) [1]) | percentage damage caused to the plant, AMARE [2] | percentage damage caused to the plant, IPOHE [3] | percentage damage caused to the plant, ECHCG [4] | percentage damage caused to the plant, LOLPE (Lolium perenne (LOLPE) [5]) | percentage damage caused to the plant, SETFA (Setaria faberi (SETFA) [6]) | percentage damage caused to the plant, SOLNI (Solarium nigrum (SOLNI) [7]) | percentage damage caused to the plant, AMARE [8] | percentage damage caused to the plant, IPOHE [9] | percentage damage caused to the plant, ECHCG [10] | percentage damage caused to the plant, LOLPE (Lolium perenne (LOLPE) [11]) | percentage damage caused to the plant, SETFA (Setaria faberi (SETFA) [12]) | percentage damage caused to the plant, ZEAMX (ZEAMX [13]) | percentage damage caused to the plant, ABUTH (ABUTH [14]) | percentage damage caused to the plant, ZEAMX (ZEAMX [15]) | percentage damage caused to the plant, ABUTH (ABUTH [16]) |
| --- | --- | --- | --- | --- | --- | --- | --- | --- | --- | --- | --- | --- | --- | --- | --- | --- |
| COC(=O)c1nn(-c2ccc(OC(F)(F)F)cc2)c2cccc(C#N)c2c1=O [Compound P7, methyl 5-cyano-4-oxo-1-[4-(trifluoromethoxy)phenyl] cinnoline-3-carboxylate] | 0 (0=0%) | 0 (0=0%) | 0 (0=0%) | 2 (2=21-40%) | 0 (0=0%) | 1 (1=10-20%) | 2 (2=21-40%) | 1 (1=10-20%) | 0 (0=0%) | 1 (1=10-20%) | 0 (0=0%) | 1 (1=10-20%) |  |  |  |  |
| CC(=O)c1cccc2c1c(=O)c(C(=O)O)nn2-c1ccc(OC(F)(F)F)cc1 [Compound P10, 5-acetyl-4-oxo-1-[4-(trifluoromethoxy)phenyl] cinnoline-3-carboxylic acid] | 1 (1=10-20%) | 1 (1=10-20%) | 0 (0=0%) | 5 (5=81-100%) | 4 (4=61-80%) | 5 (5=81-100%) | 4 (4=61-80%) | 1 (1=10-20%) | 4 (4=61-80%) | 4 (4=61-80%) | 4 (4=61-80%) | 4 (4=61-80%) |  |  |  |  |
| O=C(O)c1nn(-c2ccc(Cl)cc2)c2cccc(Oc3ccc(F)cc3)c2c1=O [Compound P11, 1-(4-chlorophenyl)-5-(4-fluorophenoxy)-4-oxo-cinnoline-3-carboxylic acid] | 5 (5=81-100%) | 3 (3=41-60%) | 0 (0=0%) | 0 (0=0%) | 0 (0=0%) | 0 (0=0%) | 1 (1=10-20%) | 5 (5=81-100%) | 0 (0=0%) | 0 (0=0%) | 0 (0=0%) | 0 (0=0%) |  |  |  |  |
| CCOC(=O)c1nn(-c2ccc(OC(F)(F)F)cc2)c2cccc(/C(C)=N/O)c2c1=O [Compound P14, ethyl 5-[(E)-N-hydroxy-C-methyl-carbonimidoyl]-4-oxo-1-[4-(trifluoromethoxy)phenyl] cinnoline-3-carboxylate] |  | 1 (1=10-20%) | 0 (0=0%) | 4 (4=61-80%) |  | 4 (4=61-80%) |  | 2 (2=21-40%) | 1 (1=10-20%) | 4 (4=61-80%) |  | 3 (3=41-60%) | 2 (2=21-40%) | 1 (1=10-20%) | 4 (4=61-80%) | 3 (3=41-60%) |
| O=C(O)c1nn(-c2ccc(OC(F)(F)F)cc2)c2cccc(-c3cc(C(F)F)on3)c2c1=O [Compound P13, 5-[5-(difluoromethyl)isoxazol-3-yl]-4-oxo-1-[4-(trifluoromethoxy)phenyl] cinnoline-3-carboxylic acid] |  | 0 (0=0%) | 0 (0=0%) | 0 (0=0%) |  | 0 (0=0%) |  | 1 (1=10-20%) | 2 (2=21-40%) | 3 (3=41-60%) |  | 4 (4=61-80%) | 0 (0=0%) | 0 (0=0%) | 3 (3=41-60%) | 0 (0=0%) |
| CCOC(=O)c1nn(-c2ccc(OC(F)(F)F)cc2)c2cccc(C(F)F)c2c1=O [Compound P36, ethyl 5-(difluoromethyl)-4-oxo-1-[4-(trifluoromethoxy)phenyl] cinnoline-3-carboxylate] |  | 0 (0=0%) | 1 (1=10-20%) | 0 (0=0%) |  | 2 (2=21-40%) |  | 0 (0=0%) | 0 (0=0%) | 0 (0=0%) |  | 1 (1=10-20%) | 0 (0=0%) | 1 (1=10-20%) | 0 (0=0%) | 0 (0=0%) |
| CCOC(=O)c1nn(-c2ccc(OC(F)(F)F)cc2)c2cccc(CC=O)c2c1=O [Compound P18, ethyl 4-oxo-5-(2-oxoethyl)-1-[4-(trifluoromethoxy)phenyl] cinnoline-3-carboxylate] |  | 0 (0=0%) | 0 (0=0%) | 0 (0=0%) |  | 1 (1=10-20%) |  | 0 (0=0%) | 1 (1=10-20%) | 1 (1=10-20%) |  | 1 (1=10-20%) | 0 (0=0%) | 0 (0=0%) | 1 (1=10-20%) | 1 (1=10-20%) |
| CCOC(=O)c1nn(-c2ccc(OC(F)(F)F)cc2)c2cccc(CC#N)c2c1=O [Compound P35, ethyl 5-(cyanomethyl)-4-oxo-1-[4-(trifluoromethoxy)phenyl] cinnoline-3-carboxylate] |  | 1 (1=10-20%) | 0 (0=0%) | 5 (5=81-100%) |  | 5 (5=81-100%) |  | 0 (0=0%) | 0 (0=0%) | 4 (4=61-80%) |  | 4 (4=61-80%) | 2 (2=21-40%) | 0 (0=0%) | 3 (3=41-60%) | 0 (0=0%) |
